Key:
[1] = tested on: HL-60 cells; assay: XTT viability of HL-60 cells after 3 days, with and without piceatannol; format: cell-based, human; details: for viability of HL-60 cells, XTT method: 3 days
Source text: Secondly, the effect of compounds of the invention may be compared to the natural inhibitor of Syk, piceatannol.

[2] = tested on: Syk-containing Jurkat cells; assay: Jurkat cell survival after seven days (FIG. 4); format: cell-based; details: 50 μg/ml
Procedure: FIG. 4 illustrates the effect of AV 61S and AV 74S on Jurkat cell survival after a seven day period;
(§1) The jurkat E6.1 line is a Syk-deficient line; in fact, AV 61S after 7 days has no effect on this cell line (i.e., neither apoptosis nor inhibition, see […]). […] The viability study has been performed after 24 and 48 hours of incubation, each time for 3 evaluations; within 1, 3 and 6 hours.

[3] = tested on: jurkat E6.1 line (Syk-deficient); assay: E6.1 Jurkat cell survival after seven days (FIG. 3); format: cell-based; details: after 7 days
Procedure: as §1

[4] = tested on: E6.1 Jurkat cells; assay: Viability of E6.1 Jurkat cells after 24 and 48 hours (FIGS. 18, 19); format: cell-based; details: 24 and 48 hours of incubation
Procedure: FIG. 18 illustrates, in comparison with cyclosporin-treated Jurkat cells, the viability of E6.1 Jurkat cells treated with differing concentrations of AV 61S or AV 74S after 24 hours; and
FIG. 19 illustrates, in comparison with cyclosporin-treated Jurkat cells, the viability of E6.1 Jurkat cells treated with differing concentrations of AV 61S or AV 74S after 48 hours.
as §1

[5] = tested on: PHA-activated PBMCs; assay: Inhibition of PHA-activated PBMCs (lymphocyte proliferation); format: cell-based, human; details: varying concentrations
Procedure: as §1
FIGS. 1 and 2 show the effect of diluent on compounds of the invention.

SMILES	viability of HL-60 cells, XTT method ([1]; 50 μg/ml with Pic 10 μM)	viability of HL-60 cells, XTT method ([1]; 50 μg/ml with Pic 30 μM)	viability of HL-60 cells, XTT method ([1]; 50 μg/ml, no piceatannol)	viability of HL-60 cells, XTT method ([1]; 100 μg/ml with Pic 10 μM)	viability of HL-60 cells, XTT method ([1]; 100 μg/ml with Pic 30 μM)	viability of HL-60 cells, XTT method ([1]; 100 μg/ml, no piceatannol)	killing of Syk-containing Jurkat cells [2]	effect on Syk-deficient jurkat E6.1 line (apoptosis, inhibition) [3]	killing of E6.1 Jurkat cells (viability study) [4]	inhibitory effect on PHA-activated PBMCs ([5]; DMSO carrier)	inhibitory effect on PHA-activated PBMCs ([5]; PBS carrier)	blocking of the inhibitory effect of AV 74S by piceatannol ([1]; AV 74S at 100 μg/ml, HL-60)
CC(CO)OCC(C)OCC(C)OCC(C)OCC(C)OCC(C)OCC(C)OC[C@H](Cc1ccccc1)NC(=O)CCc1ccc(O)cc1 (stereo partly drawn) [AV 61S]	97 % of control	83 % of control	81 % of control	59 % of control	23 % of control	36 % of control	~100%	no effect	do not kill them	inhibitory effect	lesser inhibitory effect	
Oc1cc(O)cc(/C=C/c2ccc(O)c(O)c2)c1 [piceatannol, reference compound]												at least partially blocks the inhibitory effect of AV 74S

— patent US20120108666A1, “Treatment of Cell Proliferative Disorders” (priority 2006, published 2012)
